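Values below derive from 48-hour exposures of cells grown in 96-well plates, with endpoints linearly interpolated between the two concentrations bracketing the appropriate inhibition level. GI50: concentration for 50% inhibition of growth. TGI is the concentration that stops growth completely.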
Tests used:
Test in all cases: DTP human tumour cell line panel, 48 h
NCI-H23 lung = system: NCI-H23 lung
HCT-15 colon = system: HCT-15 colon
OVCAR-5 ovarian = system: OVCAR-5 ovarian
DMS 273 small cell lung = system: DMS 273 small cell lung
IGROV1 ovarian = system: IGROV1 ovarian
M14 melanoma = system: M14 melanoma
U251 CNS = system: U251 CNS
SNB-19 CNS = system: SNB-19 CNS
SK-MEL-5 melanoma = system: SK-MEL-5 melanoma
UO-31 renal = system: UO-31 renal
UACC-62 melanoma = system: UACC-62 melanoma
RXF 393 renal = system: RXF 393 renal
OVCAR-3 ovarian = system: OVCAR-3 ovarian
DLD-1 colon = system: DLD-1 colon
SW-620 colon = system: SW-620 colon
UACC-257 melanoma = system: UACC-257 melanoma
SF-539 CNS = system: SF-539 CNS
A498 renal = system: A498 renal
KM20L2 colon = system: KM20L2 colon
SF-295 CNS = system: SF-295 CNS
OVCAR-8 ovarian = system: OVCAR-8 ovarian
SR leukemia = system: SR leukemia
HCC-2998 colon = system: HCC-2998 colon
KM12 colon = system: KM12 colon
SK-MEL-28 melanoma = system: SK-MEL-28 melanoma
MALME-3M melanoma = system: MALME-3M melanoma
CCRF-CEM leukemia = system: CCRF-CEM leukemia
RPMI-8226 leukemia = system: RPMI-8226 leukemia
A549 NSCLC = system: A549 NSCLC
LXFL 529 NSCLC = system: LXFL 529 NSCLC
TK-10 renal = system: TK-10 renal
COLO 205 colon = system: COLO 205 colon
SN12C renal = system: SN12C renal
OVCAR-4 ovarian = system: OVCAR-4 ovarian
HOP-92 NSCLC = system: HOP-92 NSCLC
SK-OV-3 ovarian = system: SK-OV-3 ovarian
HOP-18 NSCLC = system: HOP-18 NSCLC
MOLT-4 leukemia = system: MOLT-4 leukemia
K-562 leukemia = system: K-562 leukemia
SK-MEL-2 melanoma = system: SK-MEL-2 melanoma
HL-60(TB) leukemia = system: HL-60(TB) leukemia
CAKI-1 renal = system: CAKI-1 renal
HT29 colon = system: HT29 colon
SF-268 CNS = system: SF-268 CNS
NCI-H522 lung = system: NCI-H522 lung
786-0 renal = system: 786-0 renal
HOP-62 NSCLC = system: HOP-62 NSCLC
M19-MEL melanoma = system: M19-MEL melanoma
NCI-H460 lung = system: NCI-H460 lung
HCT-116 colon = system: HCT-116 colon
NCI-H226 lung = system: NCI-H226 lung
SNB-75 CNS = system: SNB-75 CNS
LOX IMVI melanoma = system: LOX IMVI melanoma
EKVX NSCLC = system: EKVX NSCLC
ACHN renal = system: ACHN renal

[O-]c1ccccc1C=NCCN=Cc1ccccc1[O-].[O]=[U+2]=[O]
GI50 (NCI-H23 lung): 22.6 µM | TGI (NCI-H23 lung): 61.1 µM | GI50 (HCT-15 colon): 36.8 µM | TGI (HCT-15 colon): > 100 µM | GI50 (OVCAR-5 ovarian): > 100 µM | TGI (OVCAR-5 ovarian): > 100 µM | GI50 (DMS 273 small cell lung): 32.5 µM | TGI (DMS 273 small cell lung): > 100 µM | GI50 (IGROV1 ovarian): 26.1 µM | TGI (IGROV1 ovarian): 61.6 µM | GI50 (M14 melanoma): 40.9 µM | TGI (M14 melanoma): > 85.8 µM | GI50 (U251 CNS): 19.3 µM | TGI (U251 CNS): 39.1 µM | GI50 (SNB-19 CNS): 23.3 µM | TGI (SNB-19 CNS): > 67.3 µM | GI50 (SK-MEL-5 melanoma): 41.7 µM | TGI (SK-MEL-5 melanoma): > 81.8 µM | GI50 (UO-31 renal): 29.8 µM | TGI (UO-31 renal): > 60.6 µM | GI50 (UACC-62 melanoma): 37.4 µM | TGI (UACC-62 melanoma): > 74.3 µM | GI50 (RXF 393 renal): 24.1 µM | TGI (RXF 393 renal): 48.5 µM | GI50 (OVCAR-3 ovarian): 24.5 µM | TGI (OVCAR-3 ovarian): 95.3 µM | GI50 (DLD-1 colon): 27 µM | TGI (DLD-1 colon): > 100 µM | GI50 (SW-620 colon): > 100 µM | TGI (SW-620 colon): > 100 µM | GI50 (UACC-257 melanoma): 34.5 µM | TGI (UACC-257 melanoma): > 78.1 µM | GI50 (SF-539 CNS): 16.7 µM | TGI (SF-539 CNS): 37.6 µM | GI50 (A498 renal): > 45.6 µM | TGI (A498 renal): > 64.8 µM | GI50 (KM20L2 colon): > 100 µM | TGI (KM20L2 colon): > 100 µM | GI50 (SF-295 CNS): 28.7 µM | TGI (SF-295 CNS): > 72.3 µM | GI50 (OVCAR-8 ovarian): 31.2 µM | TGI (OVCAR-8 ovarian): > 94.6 µM | GI50 (SR leukemia): 51.1 µM | TGI (SR leukemia): > 100 µM | GI50 (HCC-2998 colon): 27.9 µM | TGI (HCC-2998 colon): 83.6 µM | GI50 (KM12 colon): 57.1 µM | TGI (KM12 colon): > 100 µM | GI50 (SK-MEL-28 melanoma): > 50.9 µM | TGI (SK-MEL-28 melanoma): > 78.7 µM | GI50 (MALME-3M melanoma): 39.7 µM | TGI (MALME-3M melanoma): > 63.5 µM | GI50 (CCRF-CEM leukemia): 35.3 µM | TGI (CCRF-CEM leukemia): > 100 µM | GI50 (RPMI-8226 leukemia): 22.4 µM | TGI (RPMI-8226 leukemia): > 31.6 µM | GI50 (A549 NSCLC): 43.1 µM | TGI (A549 NSCLC): > 100 µM | GI50 (LXFL 529 NSCLC): 17.8 µM | TGI (LXFL 529 NSCLC): 53.3 µM | GI50 (TK-10 renal): 26.3 µM | TGI (TK-10 renal): 53.1 µM | GI50 (COLO 205 colon): > 51.8 µM | TGI (COLO 205 colon): > 85.1 µM | GI50 (SN12C renal): 28.4 µM | TGI (SN12C renal): > 63.4 µM | GI50 (OVCAR-4 ovarian): 19 µM | TGI (OVCAR-4 ovarian): 64.1 µM | GI50 (HOP-92 NSCLC): 22.6 µM | TGI (HOP-92 NSCLC): 48.3 µM | GI50 (SK-OV-3 ovarian): 24.3 µM | TGI (SK-OV-3 ovarian): 57 µM | GI50 (HOP-18 NSCLC): 31.2 µM | TGI (HOP-18 NSCLC): > 77.1 µM | GI50 (MOLT-4 leukemia): 53.7 µM | TGI (MOLT-4 leukemia): > 100 µM | GI50 (K-562 leukemia): > 79.5 µM | TGI (K-562 leukemia): > 100 µM | GI50 (SK-MEL-2 melanoma): 22 µM | TGI (SK-MEL-2 melanoma): > 62.7 µM | GI50 (HL-60(TB) leukemia): > 48.4 µM | TGI (HL-60(TB) leukemia): > 84.5 µM | GI50 (CAKI-1 renal): > 46.7 µM | TGI (CAKI-1 renal): > 67.6 µM | GI50 (HT29 colon): > 100 µM | TGI (HT29 colon): > 100 µM | GI50 (SF-268 CNS): 25.1 µM | TGI (SF-268 CNS): 66.5 µM | GI50 (NCI-H522 lung): > 53.4 µM | TGI (NCI-H522 lung): > 75.2 µM | GI50 (786-0 renal): 18.6 µM | TGI (786-0 renal): 39.2 µM | GI50 (HOP-62 NSCLC): > 43.3 µM | TGI (HOP-62 NSCLC): > 67 µM | GI50 (M19-MEL melanoma): 32.2 µM | TGI (M19-MEL melanoma): > 66.3 µM | GI50 (NCI-H460 lung): 19.6 µM | TGI (NCI-H460 lung): 43.7 µM | GI50 (HCT-116 colon): 46.2 µM | TGI (HCT-116 colon): > 100 µM | GI50 (NCI-H226 lung): > 42.5 µM | TGI (NCI-H226 lung): > 63.6 µM | GI50 (SNB-75 CNS): 22.9 µM | TGI (SNB-75 CNS): 70.2 µM | GI50 (LOX IMVI melanoma): 22.2 µM | TGI (LOX IMVI melanoma): > 100 µM | GI50 (EKVX NSCLC): 61.5 µM | TGI (EKVX NSCLC): > 100 µM | GI50 (ACHN renal): 25.9 µM | TGI (ACHN renal): > 60.7 µM

Source: PubChem BioAssay (NCI)
